In US7678549B2, “Polyphenol inhibition of nucleoside diphosphate kinase-B activity and cancer metastasis” (Research Development Foundation, priority 2001, dated 2010):

Columns and labels:
[1] = test system: guinea pig thoracic aorta; assay: Thoracic aorta in organ bath, measurement of tension; conditions: for effect on norepinephrine-contracted aorta: added at peak norepinephrine contraction, endothelium present
[2] = target: T1, tumor cell-secreted nucleoside diphosphate kinase-B (NDPK-B, Nm23-H2) (Homo sapiens, UniProt P22392); assay: NDPK-B kinase activity assay (ADP to ATP with GTP as phosphoryl donor, luciferin-luciferase); format: biochemical; conditions: for Km: KM of NDPK-B for ADP in presence of the inhibitor; for Inhibition / IC50: inhibition of NDPK-B activity; for Inhibition: Yes/No, conc. tested differs per compound (0.3-10,000 μM); for inhibition of nucleoside diphosphate kinase-B activity (in words): summary of Table 1
T1 construct: Partially purified tumor cell-secreted nucleoside diphosphate kinase-B was incubated with ADP and GTP; endogenous in cells; host or cells: human tumor cell lines MDA-MB-435s, Calu-1, WiDr and PC-3; concentrated conditioned Krebs buffer
Protocol: The human tumors MDA-MB-435s (breast ductal carcinoma), Calu-1 (metastatic lung carcinoma), WiDr (colorectal carcinoma), and PC-3 (prostatic carcinoma) were grown to confluence in DMEM with 10% heat-inactivated FBS and antibiotics. Media was replaced with Krebs buffer (25 mM Hepes, pH 7.4) and incubated at 37° C. with gentle rocking for 4 hours. The supernatant was removed and concentrated by spin concentrators. Nucleoside diphosphate kinase activity of the retentate was assayed for activity and stored at −20° C.
Conversion of ADP to ATP, using GTP as the phosphoryl donor, was quantified using the Luciferin-Luciferase ATP assay as we have previously described (9). All necessary steps were taken to eliminate and account for interference between potential nucleoside diphosphate kinase-B inhibitors and the luciferase in the assay.
Partially purified tumor cell-secreted nucleoside diphosphate kinase-B was incubated with ADP and GTP in the presence of varying concentrations of putative nucleoside diphosphate kinase inhibitors or putative metastasis/angiogenesis inhibitors and the resulting ATP generated was measured by chemiluminescence using the luciferin-luciferase assay. […] Molecular modeling studies support these kinetic assumptions (data not shown).

[3] = test system: Endothelial cells (CD31+ cells from guinea pig hearts); assay: Angiogenesis assay (endothelial tube formation on EHS matrix); format: cell-based; conditions: 30 and 100 μM, ~16 hrs, endothelial tubes on EHS matrix
Protocol: Endothelial cells (CD31^+ cells from guinea pig hearts) were plated on a matrix composed of basement proteins from the Engelbreth Holm-Swarm (EHS) mouse tumor. The cells were incubated for 16 hrs in Complete Dulbecco's Modified Eagle Medium (CDMEM) with added tea catechins ellagic acid (EA), epigallocatechin gallate (EGCG), and epicatechin gallate (ECG). Bright field images were taken using a Nikon phase-contrast microscope and a Pulnix digital camera. […] Data are representative of two experiments. Fluorescence activated cell sorting (FACS) was used to select cardiac endothelial cells positive for the PECAM marker CD31. Endothelial cells were plated on a matrix of basement proteins from the Engelbreth Holm-Swarm (EHS) mouse tumor. A complete DME media containing 10% FBS was used to maintain endothelial cultures. Differentiation of the cells into endothelial tubes was monitored in the presence and absence of the compounds of interest.

[4] = test system: Human endothelial cells monolayer; assay: Tumor cell-induced paracellular holes in endothelial cell monolayers; format: cell-based; conditions: added at the same time as tumor cells
Text: Additional studies aimed at direct analysis of the ability of polyphenolic catechin gallates to prevent breast cancer cell entry into and exit from vessels has been addressed by examining the ability of tumor cells to induce paracellular passages in endothelial cells monolayers in culture. Human endothelial cells grown to confluence in culture can be examined as a model of capillary intravasation or extravasation as in cases of human breast cancer metastasis in vivo, by examining their ability to form large (>30 μm) holes between cells (paracellular holes). […] Addition of tumor cells on top of the monolayer at concentrations of 1 cancer cell per 10,000 endothelial cells leads to the wide-spread appearance of large paracellular holes in the monolayer within 15 minutes of application of tumor cells. […] The effect is complete at 30 μM epigallocatechin gallate. Careful quantification of the presence of paracellular holes is underway using video imaging.

caspase-3 = assay: Caspase-3 activity in staurosporine-treated endothelial cells; format: cell-based, guinea pig; conditions: for caspase-3 activity (DEVDase): near-confluent monolayers of endothelial cells, cyclodextrin as pretreatment before staurosporine; for caspase-3 fluorescent substrate pattern in intact cells: staurosporine for 3 hours, with or without cholesterol-altering agents
Protocol: Control cells received 0.05% DMSO final as a control for drug vehicle (n=4). Clarified supernatants from detergentsolubilized cells are assayed for DEVDase activity using the colorimetric caspase-3 substrate DEVD-pnitroaniline.
The sequestration of cholesterol from the plasma membrane can disrupt the localization of proteins within caveolae and lipid rafts, which has shown to interrupt signaling pathways.
Using a fluorescent substrate, caspase-3 activity can b e visualized in intact cell preparations.

T1 sequence (P22392 whole entry): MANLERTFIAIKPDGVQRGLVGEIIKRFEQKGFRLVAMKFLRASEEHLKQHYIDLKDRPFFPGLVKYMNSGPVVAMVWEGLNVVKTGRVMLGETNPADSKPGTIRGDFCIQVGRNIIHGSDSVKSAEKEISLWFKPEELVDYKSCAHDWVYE

Row | Compound | Inhibition [2] | inhibition of nucleoside diphosphate kinase-B activity (in words) [2] | IC50 [2] | further results
1 | CSc1nc(N)c2ncn([C@@H]3O[C@H](COP(=O)(O)OP(=O)(O)OP(=O)(O)O)[C@@H](O)[C@H]3O)c2n1 [2-methyl thio-ATP] | – | – | – | effect on norepinephrine-contracted aorta [1]: completely relaxes
2 | Nc1ncnc2c1nc(Cl)n2[C@@H]1O[C@@H]2COP(=O)(O)O[C@H]2[C@H]1O [8-Cl-cAMP] | Yes | relatively low potency | – | Km [2]: 7.5 ± 1.5 µM; IC50 ([2]; value in mM): ~1 mM
3 | Cc1cn([C@H]2C[C@H](N=[N+]=[N-])[C@@H](CO)O2)c(=O)[nH]c1=O [AZT] | No | – | – | –
4 | O=C(O[C@@H]1Cc2c(O)cc(O)cc2O[C@@H]1c1ccc(O)c(O)c1)c1cc(O)c(O)c(O)c1 [ECG, epicatechin gallate] | Yes | – | 0.17 mM | inhibition of angiogenesis [3]: dose-dependent inhibition of angiogenesis
5 | Oc1cc(O)c2c(c1)O[C@H](c1cc(O)c(O)c(O)c1)[C@H](O)C2 [EGC, epigallocatechin] | No | inhibited | – | –
6 | O=C(O[C@@H]1Cc2c(O)cc(O)cc2O[C@@H]1c1cc(O)c(O)c(O)c1)c1cc(O)c(O)c(O)c1 [EGCG, epigallocatechin gallate] | Yes | inhibited | 0.15 mM | inhibition of angiogenesis [3]: dose-dependent inhibition of angiogenesis; Km [2]: 9.7 ± 1.8 µM; effect on norepinephrine-contracted aorta [1]: further small contraction of the vessel followed by relaxation; effect on norepinephrine-contracted aorta ([1]; listed as epigallocatechin gallate): dramatic relaxation; effect on aorta in the absence of endothelium ([1]; norepinephrine-contracted, endothelium absent): both contraction and relaxation are lost; EGCG-dependent relaxation after pretreatment with L-NAME ([1]; pretreatment with nitric oxide synthase inhibitor L-NAME): blocks epigallocatechin gallate-dependent relaxation; formation of paracellular passages (holes >30 μm) induced by tumor cells ([4]; 1 to 100 μM): prevents the formation of the paracellular passages in a dose-dependent fashion; concentration at which prevention of paracellular passages is complete [4]: 30 µM
7 | O=c1oc2c(O)c(O)cc3c(=O)oc4c(O)c(O)cc1c4c23 [Ellagic Acid, hexahydroxydiphenic acid dilactone] | Yes | highest inhibitory effect | 0.023 mM | inhibition of angiogenesis [3]: dose-dependent inhibition of angiogenesis
8 | O=c1c(-c2ccc(O)cc2)coc2cc(O)cc(O)c12 [Genestein, genestein] | No | – | – | –
9 | Nc1ncnc2c1ncn2[C@@H]1O[C@H](COP(=O)(O)OS(=O)(=O)O)[C@@H](OP(=O)(O)O)[C@H]1O [PAPS] | Yes | relatively low potency | 0.5 mM | Km [2]: 7.1 ± 1.4 µM
10 | O=c1c(O)cccc2cc(O)c(O)c(O)c12 [Purpurogallin] | Yes | – | 0.6 mM | –
11 | Oc1ccc(C=Cc2cc(O)cc(O)c2)cc1 [Resveratrol, resveratrol] | No | – | – | –
12 | CN[C@@H]1C[C@H]2O[C@@](C)([C@@H]1OC)n1c3ccccc3c3c4c(c5c6ccccc6n2c5c31)C(=O)NC4 [Staurosporine] | – | – | – | caspase-3 activity (DEVDase) (caspase-3): induce caspase-3 activity; caspase-3 fluorescent substrate pattern in intact cells (caspase-3): punctate fluorescence
13 | NC[C@H](O)c1ccc(O)c(O)c1 [norepinephrine] | – | – | – | contraction of aorta ([1]; addition to resting vessel): contraction that is stable over time
14 | fillipin III | – | – | – | caspase-3 fluorescent substrate pattern in intact cells (caspase-3): global diffuse fluorescence
15 | β methyl-cyclodextrin | – | – | – | caspase-3 activity (DEVDase) (caspase-3): enhances enzymatic activity; caspase-3 fluorescent substrate pattern in intact cells (caspase-3): global diffuse fluorescence
